Assay results from article PMC11470957, “Principles of paralog-specific targeted protein degradation engaging the C-degron E3 KLHDC2” (Nature Communications, 2024).
Where “and” joins values, the source holds several entries; their conditions need not be identical. Equal entries are not always repeated. Where two headings read alike, the source gives them in different places.

Key:
KLHDC2 = molecular target: T1, KLHDC2 (Homo sapiens, UniProt Q9Y2U9); assay: Western blot of KLHDC2 levels after cellular dosing; details: for KLHDC2 level, Western blot quantification (DMSO = 100): 1 uM; for KLHDC2 level relative to DMSO (100%): U2OS KO/Rescue
T1 sequence (Q9Y2U9 1-406): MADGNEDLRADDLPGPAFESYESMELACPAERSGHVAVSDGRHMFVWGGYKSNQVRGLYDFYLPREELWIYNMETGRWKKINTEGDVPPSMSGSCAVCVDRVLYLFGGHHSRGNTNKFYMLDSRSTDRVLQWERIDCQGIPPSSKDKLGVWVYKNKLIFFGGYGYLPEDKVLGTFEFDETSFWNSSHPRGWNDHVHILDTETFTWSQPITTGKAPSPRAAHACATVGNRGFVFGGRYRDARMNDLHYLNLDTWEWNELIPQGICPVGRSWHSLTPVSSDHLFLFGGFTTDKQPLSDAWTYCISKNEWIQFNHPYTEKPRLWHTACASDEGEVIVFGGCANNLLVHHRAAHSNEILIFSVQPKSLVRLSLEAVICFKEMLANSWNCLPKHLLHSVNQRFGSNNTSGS

BRD4 = BRD4 (Homo sapiens, UniProt O60885); assay: Western blot of BRD4 levels after cellular dosing; details: for BRD4 level, Western blot quantification (DMSO = 100): 1 uM; for BRD4 level relative to DMSO (100%): U2OS KO/Rescue, 1µM, 24 h
BRD2 = BRD2 (Homo sapiens, UniProt P25440); assay: Western blot of BRD2 levels after cellular dosing
Sequence of BRD2 (P25440 whole entry): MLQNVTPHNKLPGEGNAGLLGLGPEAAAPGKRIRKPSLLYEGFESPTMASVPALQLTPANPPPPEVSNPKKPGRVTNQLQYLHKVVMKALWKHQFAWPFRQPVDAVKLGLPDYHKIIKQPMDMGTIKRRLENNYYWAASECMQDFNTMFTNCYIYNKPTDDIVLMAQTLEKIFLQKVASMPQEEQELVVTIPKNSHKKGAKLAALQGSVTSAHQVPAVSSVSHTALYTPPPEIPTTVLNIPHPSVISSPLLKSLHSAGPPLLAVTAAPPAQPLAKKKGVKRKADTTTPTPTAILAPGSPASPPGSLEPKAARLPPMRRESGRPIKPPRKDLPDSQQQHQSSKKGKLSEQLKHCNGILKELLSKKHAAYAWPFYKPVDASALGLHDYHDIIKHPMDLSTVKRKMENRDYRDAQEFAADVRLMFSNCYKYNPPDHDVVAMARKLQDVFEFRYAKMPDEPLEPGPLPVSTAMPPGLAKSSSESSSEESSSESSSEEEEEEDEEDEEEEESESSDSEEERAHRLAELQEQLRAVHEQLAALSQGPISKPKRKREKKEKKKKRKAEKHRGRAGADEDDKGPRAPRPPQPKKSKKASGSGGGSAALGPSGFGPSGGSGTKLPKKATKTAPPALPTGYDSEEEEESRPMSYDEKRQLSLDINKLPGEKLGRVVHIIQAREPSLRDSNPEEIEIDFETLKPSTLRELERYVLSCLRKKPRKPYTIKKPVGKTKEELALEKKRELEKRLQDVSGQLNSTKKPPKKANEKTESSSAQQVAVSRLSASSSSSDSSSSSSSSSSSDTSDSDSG

BRD3 = BRD3 (Homo sapiens, UniProt Q15059); assay: Western blot of BRD3 levels after cellular dosing
Sequence of BRD3 (Q15059 whole entry): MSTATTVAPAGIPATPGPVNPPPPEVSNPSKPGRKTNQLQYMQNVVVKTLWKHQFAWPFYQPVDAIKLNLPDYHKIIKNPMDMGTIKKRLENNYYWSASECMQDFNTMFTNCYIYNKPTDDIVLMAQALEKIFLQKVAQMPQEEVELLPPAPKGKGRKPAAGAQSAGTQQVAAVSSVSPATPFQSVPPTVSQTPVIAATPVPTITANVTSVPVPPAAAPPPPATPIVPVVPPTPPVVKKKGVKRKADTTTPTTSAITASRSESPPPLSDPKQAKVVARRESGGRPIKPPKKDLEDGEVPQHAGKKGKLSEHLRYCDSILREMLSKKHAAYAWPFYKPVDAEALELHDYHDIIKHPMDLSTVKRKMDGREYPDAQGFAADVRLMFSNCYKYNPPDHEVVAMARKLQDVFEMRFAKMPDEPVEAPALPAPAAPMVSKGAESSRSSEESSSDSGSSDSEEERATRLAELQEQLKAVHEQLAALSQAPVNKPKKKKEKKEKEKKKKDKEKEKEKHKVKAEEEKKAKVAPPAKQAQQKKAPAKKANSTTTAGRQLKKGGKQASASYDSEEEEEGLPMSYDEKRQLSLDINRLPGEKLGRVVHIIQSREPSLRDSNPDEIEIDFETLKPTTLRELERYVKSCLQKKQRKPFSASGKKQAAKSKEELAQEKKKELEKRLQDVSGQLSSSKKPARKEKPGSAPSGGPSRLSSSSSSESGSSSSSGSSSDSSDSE

KLHDC2^SBD [1] = molecular target: T2, KLHDC2^SBD (Homo sapiens, UniProt Q9Y2U9); assay: Thermal shift assay (Sypro Orange) probing stabilization of KLHDC2^SBD; format: binding; design: KLHDC2^SBD (15-361) and its Avi-tagged counterpart were expressed in E. coli Rosetta2 cells; 6XHis-MBP (N, cleaved yes); made in house; host or cells: E. coli Rosetta2; details: KLHDC2^SBD; ligand concentration not given
T2 sequence (Q9Y2U9 15-361): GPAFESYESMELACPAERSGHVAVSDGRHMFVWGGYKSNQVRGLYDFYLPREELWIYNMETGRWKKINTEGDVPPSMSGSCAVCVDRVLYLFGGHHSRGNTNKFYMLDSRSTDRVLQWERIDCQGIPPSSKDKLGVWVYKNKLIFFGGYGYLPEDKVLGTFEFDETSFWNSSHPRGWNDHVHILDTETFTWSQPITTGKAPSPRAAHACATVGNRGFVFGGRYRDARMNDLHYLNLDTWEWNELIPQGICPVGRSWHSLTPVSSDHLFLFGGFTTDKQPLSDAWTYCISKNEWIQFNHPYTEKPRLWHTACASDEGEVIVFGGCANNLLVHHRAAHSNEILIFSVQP
Procedure: In an attempt to identify non-peptide ligands that target KLHDC2’s substrate binding domain (SBD), we developed a thermal shift assay probing for stabilization of KLHDC2^SBD upon ligand addition. […] We utilized the thermal shift assay to screen ~ 9,000 molecules from a diverse collection of lead-like molecules (Figs. 1b, S1a, Supplementary Table 1).
Experimental compounds (200 nl each) were dispensed into a 384-well PCR plate using the Labcyte ECHO 655 T. The assay solution, comprising 0.5 μM KLHDC2, 25 mM HEPES, 200 mM NaCl, and 5% Sypro Orange at pH 7.5, was added to achieve a final volume of 20 μl. Negative control wells contained only DMSO, while positive control wells contained a di-Gly substrate peptide derived from SELK. Fluorescence measurements of Sypro Orange in each sample were taken using a Quantstudio 5 or Quantstudio 6, with temperatures ranging from 23 to 75 °C at a rate of 0.05 °C/s. Data analysis involved calculating thermal stability using the Boltzmann and first derivative minima equations in Thermo Scientific Protein Thermal Shift software v1.4. The resulting data were uploaded to CDD Vault for further analysis.
The 8892-compound lead-like one library was screened for its ability to stabilize KLHDC2 using a sypro orange-based thermal stability single-point assay.
Supplementary Ta b l e 1. Small molecule screening data
Category Parameter Description
Assay Ty p e o f assay Thermal Stability Screen
Primary measurement RFU of Sypro Orange
Key reagents Sypro Orange
Assay protocol Experimental compounds (200nl each) were dispensed into […]
a 384-well PCR plate using the Labcyte ECHO 655T. The […]
assay solution, comprising 0.5µM KLHDC2, 25mM HEPES,
200mM NaCl, and 5% Sypro Orange at pH 7.5, was added […]
to achieve a final volume of 20μl. Negative control wells […]
contained only DMSO, while positive control wells […]
contained peptide sub2. Fluorescence measurements of
Sypro Orange in each sample were taken using a
Quantstudio 5 or Quantstudio 6, with temperatures ranging […]
from 23 to 75°C at a rate of 0.05°C/second. Data analysis […]
involved calculating thermal stability using the Boltzmann […]
and first derivative minima equations in Thermo Scientific
Protein Thermal Shift software v1.4. The resulting data […]
were uploaded to CDD Vault for further analysis.
Library Library size 10041
Library composition The library was curated from compounds cherry picked […]
from St. Jude’s collection, representative of 80% of the […]
entire collection based on scaffold diversity (2D Molecular […]
fingerprinting based clustering) and structural properties: […]
lipophilicity (cLogP<3), size (MW 200-300 Da), and no […]
structural alerts (PAINS).
Source The compound collection was curated from multiple […]
vendors and stored on-site.
Screen Format The assay was completed in 26 384 well plates
Concentration(s) tested Compounds were tested at 100µM, and then a 16-point […]
serial dilution was performed on select compounds.
Plate controls DMSO as negative control and peptide sub2 as positive […]
Reagent/ compound dispensing system Multidrop Combi and Labcyte ECHO 655T […]
Detection instrument and software Quant Studio 5 and Quant Studio 6 and Thermo Scientific […]
Protein Thermal Shift software v1.4
Correction factors No correction factors were applied.

KLHDC2^SBD [2] = molecular target: T2, KLHDC2^SBD; assay: TR-FRET assay, competition with di-Gly degron peptide binding to KLHDC2^SBD; design: KLHDC2^SBD (15-361) and its Avi-tagged counterpart were expressed in E. coli Rosetta2 cells; 6XHis-MBP (N, cleaved yes); made in house; host or cells: E. coli Rosetta2; details: inhibition of KLHDC2^SBD binding to a di-Gly degron peptide; read-out: TR-FRET IC50
Procedure: TR-FRET assays were carried out in black 384-well microtiter plates at a final volume of 20 μL per well. An assay cocktail was prepared as a mixture of 50 nM Biotin-KLHDC2 SBD, 20 nM AlexaFluor488-RIC8B peptide, 2.5 nM Tb-Streptavidin (ThermoFisher) in assay buffer (25 mM HEPES, 100 mM NaCl, 0.1% Triton X-100, 0.5 mM DTT, pH 7.5). The assay cocktail was incubated for thirty-minutes at room temperature and 20 μl distributed to assay plates. Molecules were distributed to the plates at the indicated concentration and the assay mixture was incubated for 1 h at room temperature prior to measuring the TR-FRET signal with a PHERAstar FS plate reader (BMG Labtech) equipped with modules for excitation at 337 nm and emissions at 490 and 520 nm. The integration start was set to 100 µs and the integration time to 200 µs. The number of flashes was fixed at 100. The ratio of 520/490 was used as TR-FRET signal in calculations. Assay endpoints were normalized to 100% (buffer only) and used for curve fitting in Prism.

[3] = U2OS, 24 h, read-out: BRD2 level relative to DMSO (100%), U2OS KO/Rescue, 1µM, 24 h, Fig 6d
[4] = U2OS, 24 h, read-out: BRD3 level relative to DMSO (100%), U2OS KO/Rescue, 1µM, 24 h, Fig 6d
[5] = U2OS, 24 h, read-out: BRD2 level relative to DMSO (100%), U2OS KO/Rescue, 1µM, 24 h, Fig 6c
[6] = U2OS, 24 h, read-out: BRD3 level relative to DMSO (100%), U2OS KO/Rescue, 1µM, 24 h, Fig 6c

Structure (SMILES): NS(=O)(=O)OC[C@@H]1C[C@@H](n2ccc3c(N[C@H]4CCc5ccccc54)ncnc32)C[C@@H]1O [MLN4924, reference compound]
- KLHDC2 level, Western blot quantification (DMSO = 100) (KLHDC2; Fig 6d): 3372.82 and 2800.12
- KLHDC2 level relative to DMSO (100%) (KLHDC2; 1µM, 24 h, Fig 6d): 3090 +/- 404%
- BRD4 level, Western blot quantification (DMSO = 100) (BRD4; Fig 6d): 136.422 and 116.069
- BRD4 level relative to DMSO (100%) (BRD4; Fig 6d): 130 +/- 14%
- remaining activity at 1 µM (BRD2; [3]): 170 ± 21%
- remaining activity at 1 µM (BRD3; [4]): 120 ± 23%

Structure (SMILES): O=C(O)CNC(=O)Cc1csc(-c2cccc3ccncc23)n1 [SJ46412]
- Thermal shift ΔTm (KLHDC2^SBD [1]): 1.8 ± 0.08 °C
- IC50 (KLHDC2^SBD [2]): 20.3 ± 0.8 µM

Structure (SMILES): COc1ccc2cc(-c3nc(CC(=O)NCC(=O)O)cs3)ccc2c1 [SJ46413]
- Thermal shift ΔTm (KLHDC2^SBD [1]): 3.9 ± 0.07 °C
- IC50 (KLHDC2^SBD [2]): 10.3 ± 0.2 µM

Structure (SMILES): O=C(O)CNC(=O)Cc1csc(-c2cccc3cccnc23)n1 [SJ46414]
- Thermal shift ΔTm (KLHDC2^SBD [1]): 2.7 ± 0.3 °C
- IC50 (KLHDC2^SBD [2]): 7.1 ± 0.2 µM

Structure (SMILES): O=C(O)CNC(=O)Cc1csc(-c2cccc3ccccc23)n1 [SJ46415]
- Thermal shift ΔTm (KLHDC2^SBD [1]): 3.7 ± 0.05 °C
- IC50 (KLHDC2^SBD [2]): 9.8 ± 0.1 µM

Structure (SMILES): O=C(O)CNC(=O)Cc1csc(-c2ccc3ccccc3c2F)n1 [SJ46416]
- Thermal shift ΔTm (KLHDC2^SBD [1]): 6.0 ± 0.1 °C
- IC50 (KLHDC2^SBD [2]): 1.8 ± 0.1 µM

Structure (SMILES): COc1ccc2ccc(-c3nc(CC(=O)NCC(=O)O)cs3)cc2c1 [SJ46417]
- Thermal shift ΔTm (KLHDC2^SBD [1]): 4.3 ± 0.1 °C
- IC50 (KLHDC2^SBD [2]): 1.7 ± 0.06 µM

Structure (SMILES): Cc1sc2c(c1C)C(c1ccc(Cl)cc1)=N[C@@H](CC(=O)N1CCN(CCOc3cccc4ccc(-c5nc(CC(=O)NCC(=O)OCc6ccccc6)cs5)cc34)CC1)c1nnc(C)n1-2 [SJ48087]
- KLHDC2 level relative to DMSO (100%) (KLHDC2; 1µM, 24 h, Fig 6c): 221 +/- 27%
- BRD4 level relative to DMSO (100%) (BRD4; Fig 6c): 101 +/- 11%
- remaining activity at 1 µM (BRD2; [5]): 90 ± 4%
- remaining activity at 1 µM (BRD3; [6]): 89 ± 7.3%

Structure (SMILES): Cc1sc2c(c1C)C(c1ccc(Cl)cc1)=N[C@@H](CC(=O)N1CCN(CCOc3cccc4ccc(-c5nc(CC(=O)NCC(=O)OC6CCCC6)cs5)cc34)CC1)c1nnc(C)n1-2 [SJ48088]
- KLHDC2 level, Western blot quantification (DMSO = 100) (KLHDC2; Fig 6c): 472.526 and 740.895
- KLHDC2 level, Western blot quantification (DMSO = 100) (KLHDC2; Fig 6d): 1961.3 and 1506.23
- KLHDC2 level relative to DMSO (100%) (KLHDC2; 1µM + co-dosing 1µM MLN4924, 24 h, Fig 6d): 4837 +/- 513%
- KLHDC2 level relative to DMSO (100%) (KLHDC2; 1µM, 24 h, Fig 6c): 606 +/- 190%
- KLHDC2 level relative to DMSO (100%) (KLHDC2; 1µM, 24 h, Fig 6d): 1733 +/- 321%
- BRD4 level, Western blot quantification (DMSO = 100) (BRD4; Fig 6c): 85.9664 and 71.4338
- BRD4 level, Western blot quantification (DMSO = 100) (BRD4; Fig 6d): 72.2613 and 75.636
- BRD4 level relative to DMSO (100%) (BRD4; Fig 6c): 79 +/- 9.6%
- BRD4 level relative to DMSO (100%) (BRD4; Fig 6d): 74 +/- 2.5%
- remaining activity at 1 µM (BRD2; U2OS, 24 h, read-out: BRD2 level relative to DMSO (100%), U2OS KO/Rescue, 1µM + co-dosing 1µM MLN4924, 24 h, Fig 6d): 270 ± 67%
- remaining activity at 1 µM (BRD2; [5]): 83 ± 9.7%
- remaining activity at 1 µM (BRD2; [3]): 78 ± 7.4%
- remaining activity at 1 µM (BRD2; read-out: BRD2 level, Western blot quantification (DMSO = 100), Fig 6c, 1 uM): 75.6%
- remaining activity at 1 µM (BRD2; read-out: BRD2 level, Western blot quantification (DMSO = 100), Fig 6d, 1 uM): 73.2%
- remaining activity at 1 µM (BRD3; U2OS, 24 h, read-out: BRD3 level relative to DMSO (100%), U2OS KO/Rescue, 1µM + co-dosing 1µM MLN4924, 24 h, Fig 6d): 120 ± 6.2%
- remaining activity at 1 µM (BRD3; [6]): 46 ± 1.5%
- remaining activity at 1 µM (BRD3; [4]): 24 ± 4.6%
- remaining activity at 1 µM (BRD3; read-out: BRD3 level, Western blot quantification (DMSO = 100), Fig 6c, 1 uM): 47.1%
- remaining activity at 1 µM (BRD3; read-out: BRD3 level, Western blot quantification (DMSO = 100), Fig 6d, 1 uM): 20.7%

Structure (SMILES): O=C(O)CNC(=O)Cc1csc(-c2ccc3c(c2)NCCO3)n1 [SJ49356]
- Thermal shift ΔTm (KLHDC2^SBD [1]): 1.3 ± 0.5 °C
- IC50 (KLHDC2^SBD [2]): 8.2 ± 0.3 µM
